Key:
[1] = biological target: T1, LmMK (recombinant, bacterially expressed) (Leishmania major, UniProt Q4Q6K7); assay: X-ray crystal structure of complex, […] A (also radioactive kinase assay); assay type: binding
T1 construct: gene LMJF_31_0560; pET15b (NdeI/XhoI), E. coli BL21(DE3), N-terminal His-tag removed by thrombin; about 329 residues, monomer, about 35 kDa; 3 C-terminal residues disordered
T1 sequence (Q4Q6K7 1-329): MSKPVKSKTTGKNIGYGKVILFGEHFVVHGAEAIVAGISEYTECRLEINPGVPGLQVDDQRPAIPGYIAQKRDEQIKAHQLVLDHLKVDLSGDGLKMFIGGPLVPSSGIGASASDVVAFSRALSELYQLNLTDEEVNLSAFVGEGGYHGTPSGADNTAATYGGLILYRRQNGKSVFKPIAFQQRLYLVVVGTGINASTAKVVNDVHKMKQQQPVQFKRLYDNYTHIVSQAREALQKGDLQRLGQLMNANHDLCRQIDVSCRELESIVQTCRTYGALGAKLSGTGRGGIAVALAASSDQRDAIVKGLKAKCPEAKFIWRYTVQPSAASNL

[2] = biological target: T2, TbMK (TbMK-HA) (Trypanosoma brucei, UniProt Q57Y11); assay type: biochemical; conditions: phosphate donor; with 833 uM [3H](R)-MVA, MgCl2 5 uM, pH 7.0, 30 C
T2 construct: gene Tb04.1D20.470
T2 sequence (Q57Y11 entry or part of it): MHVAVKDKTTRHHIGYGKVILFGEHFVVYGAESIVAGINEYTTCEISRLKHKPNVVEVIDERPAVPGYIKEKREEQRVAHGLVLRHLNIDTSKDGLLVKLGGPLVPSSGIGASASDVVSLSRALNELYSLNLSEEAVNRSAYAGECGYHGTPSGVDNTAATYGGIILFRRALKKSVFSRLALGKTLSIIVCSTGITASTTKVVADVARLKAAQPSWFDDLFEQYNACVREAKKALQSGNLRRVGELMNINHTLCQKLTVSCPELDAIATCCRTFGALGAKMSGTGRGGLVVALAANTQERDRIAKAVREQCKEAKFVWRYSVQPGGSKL

[3] = biological target: T1, LmMK (recombinant, bacterially expressed); assay: radioactive phosphorylation assay, chromatography, scintillation counting; assay type: biochemical

Compound: C[C@@](O)(CCO)CC(=O)O [(R)-MVA]
- X-ray crystal structure of complex, 1.9 A (also radioactive kinase assay) [1]: The electron density clearly indicated the presence of (R)-MVA in molecule A

Compound: Nc1ncnc2c1ncn2[C@@H]1O[C@H](COP(=O)(O)OP(=O)(O)OP(=O)(O)O)[C@@H](O)[C@H]1O [ATP]
- radioactive phosphorylation assay, chromatography, scintillation counting [2]: an ATP-dependent MK activity in Leishmania and Trypanosoma
- radioactive phosphorylation assay, chromatography, scintillation counting [3]: Activity of LmMK was observed after incubation of the enzyme with radiolabeled [^3H] (R)-MVA and ATP
